{"source": "patent US12617776B2", "about": "(priority 2020, dated 2026)", "key": {"physchem [1]": {"assay": "physchem", "method": "The aliquot volumes were typically 25-100 μL.\nFrom the infrared (IR) transmission data of the sample vials, dissolution and precipitation events were recorded as the point of complete transmission of IR and the onset of turbidity by IR respectively.\nSamples were held at ambient temperature for 18 hours to maximize the chance of precipitation. Any recoverable solids were analyzed by XRPD."}, "physchem [2]": {"assay": "physchem", "details": "25 °C, pH 6.6, water, thermodynamic from solid", "method": "The mixture was stirred and after 30 minutes a thick suspension was formed. Further aliquots (20 μL) of water were added until a fine suspension was formed. This was stirred at 25° C. overnight and filtered to yield a clear solution. The solution was weighed and evaporated to constant weight to determine the solubility."}, "[3]": {"assay": "Solubility estimation of AAT-730 by aliquot addition", "type": "physicochemical", "details": "for Solubility range: 20° C.", "method": "The aliquot volumes were typically 20-200 μL. […] Samples were held at ambient temperature for at least 18 hours to maximize the chance of precipitation. Any recoverable solids were analyzed by XRPD."}, "[4]": {"assay": "Salt screening experiments of AAT-730 (XRPD of isolated solids)", "details": "salt screen", "method": "Solutions of the free base in the chosen solvent were added to either solutions of the salt former, or if the salt was not soluble in the solvent, slurries of the salt formers. Any solids which precipitated were recovered and analyzed by XRPD analysis to determine if the solid was crystalline.\nThe required acid (1 molar equivalent) was added to each HPLC vial and the API stock solution (containing 30 mg of API) was added. The mixtures were stirred at 300 rpm (ambient temperature) for up to 16 hours. Any solids which precipitated were isolated by centrifugation, solvent decanted and solids dried with thin strips of filter paper prior to analysis by XRPD. Any solutions were evaporated to dryness and solids analyzed by XRPD. Gels were either triturated or temperature cycled in MTBE.\nAPI (30 mg), acid co-former (1 mol. eq.) and ethanol (300 μL) were added to HPLC vials and stirred at 40° C. for up to 16 hours. Solids were recovered by centrifugation, solvent decanted and dried with thin strips of filter paper prior to analysis by XRPD. Solutions were evaporated to dryness.\nGels isolated from the screening experiments were triturated in either MTBE or EtOAc to induce precipitation. MTBE or EtOAc (200 μL) was added to the gel and stirred at 40° C. for up to 3 hours prior to cooling to ambient and stirring for up to 48 hours. Any solids were isolated by centrifugation, solvent decanted and solids dried with thin strips of filter paper prior to analysis by XRPD. Any solutions were evaporated to dryness.\nGels isolated from screening experiments were temperature cycled in MTBE according to the following program: • Heating from 20° C. to 40° C. at 0.2° C./minute. • Cooling to 20° C. at 0.1° C./minute. • Stirring speed 400 rpm.\nThe vials were sealed and the contents milled using a Fritsch Pulverisette 5 planetary mill (30 repetitions of 20 minutes milling at 400 rpm and 20 minutes pause). The resultant material was analyzed using XRPD.\nSome of the acid co-formers had pKa values which were suitable for forming either hemi or bis-salts and experiments were carried out using these acids. Crystalline solids were isolated from the experiments using 0.5 mol. eq. of EDSA but these appeared to be composed of polymorphs of the free base and salt formation hadn't occurred with 0.5 mol. eq. of EDSA. The EDSA salt formed with 2 mol. eq. of EDSA yielded solids with the same XRPD pattern as the mono-EDSA salt. Two different crystalline salts were isolated from the reactions with HCl and these may be the mono and bis-HCl salts, however stoichiometry cannot be determined by ^1H NMR. The salt formation with MSA yielded the bis-MSA salt and this is discussed in Example 3-16. The salt isolated with glutaric acid has the same XRPD pattern as the salt isolated with 1 mol. eq. of glutaric acid and is a mono-glutarate salt (Example 3-17). A solid was isolated from the experiment with 2 mol. eq. of sulfuric acid and this may be a sulfate."}, "[5]": {"assay": "Humidity and temperature stressing of AAT-730 free base (XRPD, 1H NMR)", "type": "physicochemical", "details": "for XRPD analysis of post-stressed sample (physical form): 7 days", "method": "The stability was also tested at a range of elevated relative humidity conditions for 7 days."}, "[6]": {"assay": "Thermal stressing of AAT-730 free base forms (Method 2-9)", "type": "physicochemical", "details": "for XRPD after thermal stress: sealed vial, several days"}, "physchem [7]": {"assay": "physchem", "details": "water, thermodynamic from solid", "quoted_text": "The aliquot volumes were typically 10-20 μL. Complete dissolution of the test material was determined by visual inspection. The solubility was estimated from these experiments based on the total solvent used to provide complete dissolution."}}, "note": "Entries after “also recorded” stand apart in the source; their conditions may differ. Where a name gives a salt, the structure may show the parent alone."}
{"compound": "CN(C)CCn1c(CC(C)(C)C)nc2cc(S(=O)(=O)C3CN(CCO)C3)ccc21", "note": "[AAT-730 HCl salt, HCl salt of 2-[3-({1-[2-(dimethylamino)ethyl]-2-(2,2-dimethylpropyl)-1H-1,3-benzodiazol-5-yl}sulfonyl)azetidin-1-yl]ethan-1-ol]", "values": [{"measurement": "solubility", "setting": "physchem [1]; 20 °C, aqueous with cosolvent or surfactant or cyclodextrin, thermodynamic from solid, Solubility at 20° C., EtOH/water (50/50), aliquot addition", "result": "205 to 273", "unit": "mg/mL"}, {"measurement": "solubility", "setting": "physchem [1]; 20 °C, organic solvent or mixture, thermodynamic from solid, Solubility at 20° C., DMSO/water (80/20, Aw at most 0.27), aliquot addition", "result": "22 to 25", "unit": "mg/mL"}, {"measurement": "solubility", "setting": "physchem [1]; 20 °C, organic solvent or mixture, thermodynamic from solid, Solubility at 20° C., THF/water (13/1, Aw at most 0.9), aliquot addition", "result": "< 20", "unit": "mg/mL"}, {"measurement": "solubility", "setting": "physchem [1]; 20 °C, organic solvent or mixture, thermodynamic from solid, Solubility at 20° C., acetone, aliquot addition", "result": "< 20", "unit": "mg/mL"}, {"measurement": "solubility", "setting": "physchem [1]; 20 °C, organic solvent or mixture, thermodynamic from solid, Solubility at 20° C., acetone/water (20/1, Aw at most 0.6), aliquot addition", "result": "< 20", "unit": "mg/mL"}, {"measurement": "solubility", "setting": "physchem [1]; 20 °C, organic solvent or mixture, thermodynamic from solid, Solubility at 20° C., acetonitrile, aliquot addition", "result": "< 21", "unit": "mg/mL"}, {"measurement": "solubility", "setting": "physchem [1]; 20 °C, organic solvent or mixture, thermodynamic from solid, Solubility at 20° C., dichloromethane, aliquot addition", "result": "< 20", "unit": "mg/mL"}, {"measurement": "solubility", "setting": "physchem [1]; 20 °C, organic solvent or mixture, thermodynamic from solid, Solubility at 20° C., ethanol, aliquot addition", "result": "< 21", "unit": "mg/mL"}, {"measurement": "solubility", "setting": "physchem [1]; 20 °C, organic solvent or mixture, thermodynamic from solid, Solubility at 20° C., methanol, aliquot addition", "result": "< 20", "unit": "mg/mL"}, {"measurement": "solubility", "setting": "physchem [1]; 20 °C, organic solvent or mixture, thermodynamic from solid, Solubility at 20° C., tetrahydrofuran, aliquot addition", "result": "< 20", "unit": "mg/mL"}, {"measurement": "solubility", "setting": "physchem [1]; aqueous with cosolvent or surfactant or cyclodextrin, thermodynamic from solid, solubility", "result": "≥ 20", "unit": "mg/mL"}, {"measurement": "solubility", "setting": "physchem [1]; organic solvent or mixture, thermodynamic from solid, solubility, DMSO/water (80/20), ambient temperature, aliquot addition", "result": "≥ 20", "unit": "mg/mL"}, {"measurement": "solubility thermodynamic", "setting": "physchem [2]", "result": "~220", "unit": "mg/mL"}]}
{"compound": "CN(C)CCn1c(CC(C)(C)C)nc2cc(S(=O)(=O)C3CN(CCO)C3)ccc21", "note": "[AAT-730, 2-[3-({1-[2-(dimethylamino)ethyl]-2-(2,2-dimethylpropyl)-1H-1,3-benzodiazol-5-yl}sulfonyl)azetidin-1-yl]ethan-1-ol]", "values": [{"measurement": "Solubility range", "setting": "[3]; 2-propanol, isopropyl alcohol (IPA)", "result": "81 to 87", "unit": "mg/mL"}, {"measurement": "Solubility range", "setting": "[3]; EtOH/water (96/4, Aw at most 0.25)", "result": "313 to 417", "unit": "mg/mL"}, {"measurement": "Solubility range", "setting": "[3]; MeOH/water (84/16, Aw at most 0.44)", "result": "638 to 1275", "unit": "mg/mL"}, {"measurement": "Solubility range", "setting": "[3]; THF/water (96/4, Aw at most 0.74)", "result": "410 to 615", "unit": "mg/mL"}, {"measurement": "Solubility range", "setting": "[3]; acetone", "result": "118 to 157", "unit": "mg/mL"}, {"measurement": "Solubility range", "setting": "[3]; acetone/water (50/50, Aw at most 0.91)", "result": "618 to 1235", "unit": "mg/mL"}, {"measurement": "Solubility range", "setting": "[3]; acetonitrile (ACN)", "result": "145 to 164", "unit": "mg/mL"}, {"measurement": "Solubility range", "setting": "[3]; anisole", "result": "58 to 60", "unit": "mg/mL"}, {"measurement": "Solubility range", "setting": "[3]; cyclohexane", "result": "<24", "unit": "mg/mL"}, {"measurement": "Solubility range", "setting": "[3]; dichloromethane (DCM)", "result": "360 to 504", "unit": "mg/mL"}, {"measurement": "Solubility range", "setting": "[3]; dimethyl sulfoxide (DMSO)", "result": "242 to 303", "unit": "mg/mL"}, {"measurement": "Solubility range", "setting": "[3]; dioxane", "result": "117 to 129", "unit": "mg/mL"}, {"measurement": "Solubility range", "setting": "[3]; ethanol (EtOH)", "result": "213 to 256", "unit": "mg/mL"}, {"measurement": "Solubility range", "setting": "[3]; ethyl acetate (EtOAc)", "result": "27 to 28", "unit": "mg/mL"}, {"measurement": "Solubility range", "setting": "[3]; methanol (MeOH)", "result": ">510", "unit": "mg/mL"}, {"measurement": "Solubility range", "setting": "[3]; methyl isobutyl ketone (MIBK)", "result": "<26", "unit": "mg/mL"}, {"measurement": "Solubility range", "setting": "[3]; methyl tert-butyl ether (MTBE)", "result": "<26", "unit": "mg/mL"}, {"measurement": "Solubility range", "setting": "[3]; tetrahydrofuran (THF)", "result": "246 to 492", "unit": "mg/mL"}, {"measurement": "solubility", "setting": "[3]; thermodynamic from solid, water, ambient temperature, aliquot addition, read-out: aqueous solubility", "result": "367 to 514", "unit": "mg/mL"}, {"measurement": "Solubility range", "setting": "[3]; toluene", "result": "<25", "unit": "mg/mL"}, {"measurement": "XRPD Result", "setting": "[4]; EDSA 2 mol. eq., THF, sample CAT0001E-019-04", "result": "AAT-730 EDSA"}, {"measurement": "XRPD Result", "setting": "[4]; H2SO4 2 mol. eq., THF, sample CAT0001E-019-08", "result": "possible sulfate Pattern B"}, {"measurement": "XRPD Result", "setting": "[4]; HCl 2 mol. eq., EtOH, sample CAT0001E-019-05B", "result": "AAT-730 HCl Pattern B"}, {"measurement": "XRPD Result", "setting": "[4]; HCl 2 mol. eq., THF, sample CAT0001E-019-05", "result": "AAT-730 HCl Pattern A**"}, {"measurement": "XRPD Result", "setting": "[4]; L-aspartic acid 0.5 mol. eq., THF, sample CAT0001E-019-09", "result": "API"}, {"measurement": "XRPD Result", "setting": "[4]; L-glutamic acid 0.5 mol. eq., THF, sample CAT0001E-019-11", "result": "API"}, {"measurement": "XRPD Result", "setting": "[4]; MSA 2 mol. eq., THF, sample CAT0001E-019-06", "result": "AAT-730 MSA Pattern B"}, {"measurement": "XRPD Result", "setting": "[4]; glutaric acid 0.5 mol. eq., THF, sample CAT0001E-019-12", "result": "AAT-730 glutarate"}, {"measurement": "1H NMR analysis of post-stressed samples", "setting": "[5]; 1 week at 25° C./60% RH, 40° C./75% RH, 70° C./75% RH", "result": "no change"}, {"measurement": "XRPD analysis of post-stressed sample (physical form)", "setting": "[5]; 25° C./60% RH", "result": "remained as an anhydrate"}, {"measurement": "XRPD analysis of post-stressed sample (physical form)", "setting": "[5]; 40° C./75% RH, listed as AAT-730 free base", "result": "change in form to the hydrate; also recorded: converted to a hydrate"}, {"measurement": "XRPD analysis of post-stressed sample (physical form)", "setting": "[5]; 70° C./75% RH, listed as AAT-730 free base", "result": "change in form to the hydrate; also recorded: converted to a hydrate"}, {"measurement": "XRPD after thermal stress", "setting": "[6]; 40° C.", "result": "Pattern A +"}, {"measurement": "XRPD after thermal stress", "setting": "[6]; 60° C.", "result": "Pattern A +"}, {"measurement": "physical stability to thermal stressing", "setting": "[6]; at the temperatures tested (40 or 60° C.)", "result": "physically unstable"}]}
{"compound": "CN(C)CCn1c(CC(C)(C)C)nc2cc(S(=O)(=O)C3CN(CCO)C3)ccc21", "note": "[AAT-730 HCl salt Pattern 1]", "values": [{"measurement": "solubility", "setting": "physchem [1]; DMSO/water (80/20), ambient temperature, aliquot addition", "result": "greater than or equal to 20 mg/mL"}, {"measurement": "solubility", "setting": "physchem [7]", "result": "164 to 205", "unit": "mg/mL"}]}
{"compound": "CN(C)CCn1c(CC(C)(C)C)nc2cc(S(=O)(=O)C3CN(CCO)C3)ccc21", "note": "[AAT-730 HCl salt Pattern 2]", "values": [{"measurement": "solubility", "setting": "physchem [1]; pH 6, water, thermodynamic from solid, aqueous solubility, water, pH 6-7, aliquot addition", "result": "197 to 263", "unit": "mg/mL"}]}
